The subject of the data set is μpatterned hiPSC-CMs. The data set can be described thus: movement of LifeAct-labeled myofibrils in beating μpatterned hiPSC-CMs (cross-correlation, Ncorr). Format: cell-based, human. The note with it: for aδ (temporal asynchronicity) / d (displacement) / VR (peak velocity of relaxation) / VC (peak velocity of contraction) / aθ (spatial asynchronicity): LifeAct, single cell. The protocol:
We fluorescently labeled actin with LifeAct in live hiPSC-CMs to image myofibrils and sarcomeres as described before. (Ribeiro 2015a) For this effect, we incubated hiPSC-CMs with the adenovirus rAV CAG-LifeAct-TagRFP (Ibidi; 1×10^5 IU/mL in cell-culture medium) overnight at 37° C. in a humid 5% CO2 atmosphere. We then washed cells once with PBS at 37° C. and added new medium. We observed actin labeled in sarcomeres after 2 days of adding the adenovirus to the culture medium. To induce contractile changes in hiPSC-CMs, we added drugs known to affect CM contractile machinery to the culture medium. We analyzed the mechanical output of cells after adding drugs. […] We exposed single cells to concentrations of 0.1 μM and then 1 μM of isoproterenol (Sigma, Saint Louis, Mo.) to test how the contractile activity of each cell varied after adding different amounts of isoproterenol to the medium. Omecamtiv mecarbil (Adooq Bioscience, Irvine, Calif.) was also added to the cell culture medium at 10 nM or 0.1 μM to detect different variations in the contractile response of hiPSC-CMs after adding one of these concentrations. We acquired videos of single beating hiPSC-CMs imaged with differential interference contrast microscopy at frame rates higher than 30 fps for a time between 4 and 10 s. We used MATLAB (R2014b version, Mathworks) to convert pixels of each frame to microns. Zeiss files (.czi) contained information on the pixel dimensions and were imported into MATLAB using the Bioformats package. ([…] 2010) We also confirmed the software calibration with calibration slides (Electron Microscopy Sciences). For each video of a beating single cell, we selected a region of interest (ROI) around the borders of the cell and analyzed average displacements within this ROI (FIG. 1B). For this purpose, we selected a baseline frame, within all the frames of the video, which represented the relaxed state of the cell and calculated average displacement within the ROI for the remaining frames relative to the baseline frame. As noted bellow, this procedure was automated. We then calculated displacements from microscopy videos with cross-correlation approaches: digital image correlation (DIC) and particle image velocimetry (PIV) approaches. […] Cross-correlation is done between sub-blocks of the image and the highest correlation indicates the maximum likelihood that blocks match. We tested the following cross-correlation algorithms: PIVIab, ImageJ PIV (Tseng 2012) and Ncorr. PIVIab and Ncorr were written in MATLAB, while ImageJ PIV is a plugin for ImageJ (NIH). Ncorr generally performs better, but uses more computational time. (Blaber 2015) We measured two parameters of asynchronicity of contractile movement within the ROI: spatial asynchronicity (aθ) of contractile movement and temporal asynchronicity (aδ) of contractile movement. Spatial synchronicity occurs when the different regions of the cell move along the same directions and temporal synchronicity occurs when all the regions of the cell move at the same time. To calculate aθ, we first computed the direction of movement (θ) for every movement vector of different regions i inside the ROI (FIG. 1B) at each frame as defined by The second approach performed better for analyzing sarcomere lengths in videos of LifeAct labeled beating cells. This approach was applied to different frames in a video to determine how the different properties measure with traction force microscopy or from cell movement related to sarcomere size, movement and orientation during the contractile cycle. Most of the tested approaches relied on successful skeletonization of each frame, which may not be perfect due to noise or inconsistent illumination. To quantitatively compare different skeletons from different frames in a video, we generated a master skeleton based on the skeletons generated from all frames. […]

For the compound `COC(=O)N1CCN(Cc2cccc(NC(=O)Nc3ccc(C)nc3)c2F)CC1` [omecamtiv mecarbil], the “acute changes in sarcomere organization and movement” value (0.1 μM omecamtiv mecarbil, acute, single cell (FIG. 6B)) is “oscillatory contractions of sarcomeres and overlap between sarcomeres”. Also, the “chronic effects on the organization of myofibrils” value (0.1 μM omecamtiv mecarbil, chronic, 2 minutes after adding (FIG. 6C)) is on record as “myofibril damaging”. Also, the “acute values of dmax and br from myofibril movement” value (0.1 μM omecamtiv mecarbil, single cell (FIG. 6F)) is listed as “slightly increased”. For the same compound, the “acute VC and VR from myofibril movement” value (0.1 μM omecamtiv mecarbil, single cell (FIG. 6G)) is on record as “no considerable acute variations”. The “aδ (temporal asynchronicity)” value by setting is: (OM 0.1 μM (FIG. 6), row 'acute', no OM: 0.05) 0.89 s; (OM 0.1 μM (FIG. 6), row 'chronic', no OM: 0.05) 0.88 s. Moreover, the “d (displacement)” value amounted to 0.25 μm (OM 0.1 μM (FIG. 6), row 'acute', no OM: 1.03) and 0.93 μm (OM 0.1 μM (FIG. 6), row 'chronic', no OM: 1.03). For the same compound, the “VR (peak velocity of relaxation)” value by setting is: (OM 0.1 μM (FIG. 6), row 'acute', no OM: 2.2) 0.51 μm/s; (OM 0.1 μM (FIG. 6), row 'chronic', no OM: 2.2) 1.63 μm/s. Besides, the “VC (peak velocity of contraction)” value is, setting by setting: (OM 0.1 μM (FIG. 6), row 'acute', no OM: 2.25) 0.54 μm/s; (OM 0.1 μM (FIG. 6), row 'chronic', no OM: 2.25) 2.2 μm/s. Moreover, the “aθ (spatial asynchronicity)” value by setting is: (OM 0.1 μM (FIG. 6), row 'acute', no OM: 36.3) 40.9 °; (OM 0.1 μM (FIG. 6), row 'chronic', no OM: 36.3) 17.1 °.

`CC(C)NCC(O)c1ccc(O)c(O)c1` (stereo not drawn) [isoproterenol]: the “aδ (temporal asynchronicity)” value turned out to be 0.31 s (ISO 0.1 (μM per FIG. 4), no ISO: 0.1) and 0.28 s (ISO 1 (μM per FIG. 4), no ISO: 0.1). The “d (displacement)” value by setting is: (ISO 0.1 (μM per FIG. 4), no ISO: 1.22) 1.43 μm; (ISO 1 (μM per FIG. 4), no ISO: 1.22) 0.71 μm. For the same compound, the “VR (peak velocity of relaxation)” value (ISO 0.1 (μM per FIG. 4), no ISO: 2.54) is reported as 3.45 μm/s and the “VR (peak velocity of relaxation)” value (ISO 1 (μM per FIG. 4), no ISO: 2.54) is listed as 2.05 μm/s. The “VC (peak velocity of contraction)” value is, setting by setting: (ISO 0.1 (μM per FIG. 4), no ISO: 2.63) 4.78 μm/s; (ISO 1 (μM per FIG. 4), no ISO: 2.63) 2.02 μm/s. Moreover, the “aθ (spatial asynchronicity)” value is, setting by setting: (ISO 0.1 (μM per FIG. 4), no ISO: 55.4) 19.5 °; (ISO 1 (μM per FIG. 4), no ISO: 55.4) 20.8 °.

(Values after patent US20180106782A1, “HIGH THROUGHPUT CARDIOTOXICITY SCREENING PLATFORM” (The Board of Trustees of the Leland Stanford Junior …, priority 2016, published 2018).)
